One data set has as its system Wistar male rats. The experiment in a line: Identification of side effects after intravenous administration (Test Example 2). Particulars: for Cessation of breathing, number of cases: 4 rats per group. The method, then:
(§1) 7- to 9-week-old Wistar male rats were divided into the following 8 administration groups. The number of rats in each group was set at 4. […]
L-histidine hydrochloride was dissolved in water for injection purpose, and the obtained solution was then adjusted to pH 6.0 with a sodium hydroxide aqueous solution. The obtained injection solution (L-histidine concentration: 10% (W/V)) was administered into the caudal vein of each rat at a rate of 60 mL/kg/hr for 10 minutes.
(§2) L-histidine was added to water for injection purpose, and acetic acid was further added thereto, so as to dissolve L-histidine in the solution. The obtained solution was adjusted to pH 6.0 with a sodium hydroxide aqueous solution. The obtained injection solution (L-histidine concentration: 10% (W/V)) was administered into the caudal vein of each rat at a rate of 60 mL/kg/hr for 10 minutes.
L-histidine was added to water for injection purpose, and citric acid was further added thereto, so as to dissolve L-histidine in the solution. The obtained solution was adjusted to pH 6.0 with a sodium hydroxide aqueous solution. The obtained injection solution (L-histidine concentration: 10% (W/V)) was administered into the caudal vein of each rat at a rate of 60 mL/kg/hr for 10 minutes.
β-alanyl-L-histidine was added to water for injection purpose, and the obtained solution was then adjusted to pH 7 with hydrochloric acid. The obtained injection solution (L-histidine concentration: 10% (W/V)) was administered into the caudal vein of each rat at a rate of 60 mL/kg/hr for 10 minutes. […]
(§3) After administration of the agent, blood was collected from each rat at regular time intervals, and the concentration of L-histidine (monomer) in blood was then measured using a high speed amino acid analyzer L-8800A (manufactured by Hitachi High-Technologies Corporation). […] In addition, the body temperature, blood pressure, and cardiac rate of each test animal were measured during the period from before administration of the agent until after the administration of the agent, and at the same time, the appearance of each test animal was observed, so as to examine the presence or absence of side effects caused by administration of the agent. The L-histidine concentration in blood was measured 15 minutes after the administration of the agent, and the presence or absence of side effects caused by such administration of the agent was examined.

The nature of data set [1]: L-histidine concentration in blood after intravenous administration (Test Example 2). On the procedure:
as §1
The therapeutic agent for cerebral ischemic injury obtained in Production Example 2 was diluted by a factor of 2, and the thus diluted solution was administered into the caudal vein of each rat at a rate of 60 mL/kg/hr for 10 minutes. […]
as §2
L-histidine was added to water for injection purpose, and citric acid was further added thereto, so as to dissolve L-histidine in the solution. The obtained solution was adjusted to pH 6.0 with a sodium hydroxide aqueous solution. The obtained injection solution (L-histidine concentration: 10% (W/V)) was administered into the caudal vein of each rat at a rate of 60 mL/kg/hr for 10 minutes. […]
as §3

A short description of data set [2]: Time course of L-histidine concentration in blood after administration of different dipeptides (Test Example 4). Format: in vivo, Wister male rats. On the procedure:
7- to 8-week-old Wister male rats were divided into the following 3 administration groups.
1.00 g of L-alanyl-L-histidine (manufactured by Bachem) was dissolved in water for injection purpose to prepare 13.70 mL (total amount) of solution. This solution was subjected to sterilization filtration, and it was then poured into syringes (10 mL each per syringe), so as to produce a therapeutic agent for cerebral ischemic injury having a dosage form as an injection. The concentration of L-alanyl-L-histidine in this therapeutic agent for cerebral ischemic injury was 0.32 mol/L (L-histidine concentration: 5% (W/V)).
1.00 g of L-histidyl-L-glycine (manufactured by Bachem) was dissolved in water for injection purpose to prepare 14.60 mL (total amount) of solution. This solution was subjected to sterilization filtration, and it was then poured into syringes (10 mL each per syringe), so as to produce a therapeutic agent for cerebral ischemic injury having a dosage form as an injection. The concentration of L-histidyl-L-glycine in this therapeutic agent for cerebral ischemic injury was 0.32 mol/L (L-histidine concentration: 5% (W/V)).
1.00 g of L-histidyl-L-glutamic acid (manufactured by Bachem) was dissolved in water for injection purpose to prepare 10.90 mL (total amount) of solution. This solution was subjected to sterilization filtration, and it was then poured into syringes (10 mL each per syringe), so as to produce a therapeutic agent for cerebral ischemic injury having a dosage form as an injection. The concentration of L-histidyl-L-glutamic acid in this therapeutic agent for cerebral ischemic injury was 0.32 mol/L (L-histidine concentration: 5% (W/V)).

The mark [3] stands for this setting: 5th administration group: dissolved with acetic acid, pH 6.0, L-histidine 10% (W/V), caudal vein 60 mL/kg/hr for 10 minutes.
Where [4] appears, read: 6th administration group: dissolved with citric acid, pH 6.0, L-histidine 10% (W/V), caudal vein 60 mL/kg/hr for 10 minutes.
[5] abbreviates: male, Wistar, rat, in vivo, 15 min.

SMILES strings stand for the structures. Entries after “also recorded” stand apart in the source; their conditions may differ. Peptide text beside a SMILES is read from it.

As for `Cl.N[C@@H](Cc1c[nH]cn1)C(=O)O` [L-histidine hydrochloride], the Side effects result with Wistar male rats (4th (pH 6.0) / 7th (pH 7) administration group: L-histidine concentration 10% (W/V), caudal vein 60 mL/kg/hr for 10 minutes, hydrochloride) is listed as “Decrease in blood pressure; also recorded: Cessation of breathing”. For the same compound, the “Cessation of breathing, number of cases” value in the data set with Wistar male rats (4th group: during administration of agent, 7th group: immediately after administration, L-histidine 10% (W/V)) is recorded as “agent in 2 cases”.

For `N[C@@H](Cc1c[nH]cn1)C(=O)O` [L-histidine], the “L-histidine concentration in blood (mean value)” value in data set [1] (setting [3]) and in data set [1] (setting [4]) was “Not be measurable” each time. Also, the Side effects entry with Wistar male rats (setting [3]) and in the data set on Wistar male rats (setting [4]) was “Decrease in blood pressure; also recorded: Cessation of breathing” throughout. The “Cessation of breathing, number of cases” value with Wistar male rats (5th group (acetic acid, pH 6.0, 10% (W/V)): immediately after administration of agent) is recorded as “administration of agent in 4 cases”; with Wistar male rats (6th group (citric acid, pH 6.0, 10% (W/V)): during administration of agent), “agent in 4 cases”.

On to `N[C@@H](Cc1c[nH]cn1)C(=O)N[C@@H](CCC(=O)O)C(=O)O` [L-histidyl-L-glutamic acid] (H-His-Glu-OH), for which the “L-histidine concentration in blood” value worked out at 1546.15 nmol/mL in data set [2] (male, Wistar, rat, in vivo, 0 min); 2090.10 nmol/mL in data set [2] (setting [5]); 1827.15 nmol/mL in data set [2] (male, Wistar, rat, in vivo, 30 min); 926.80 nmol/mL in data set [2] (male, Wistar, rat, in vivo, 60 min); 233.20 nmol/mL in data set [2] (male, Wistar, rat, in vivo, 120 min); 78.40 nmol/mL in data set [2] (male, Wistar, rat, in vivo, -10 min).

As for `N[C@@H](Cc1cnc[nH]1)C(=O)NCC(=O)O` [L-histidyl-L-glycine] (H-His-Gly-OH), the “L-histidine concentration in blood” value in data set [2] (0 min after administration, 0.32 mol/L, caudal vein 60 mL/kg/hr for 10 minutes) was found to be 3995.57 nmol/mL; in data set [2] (15 min after administration, 0.32 mol/L, caudal vein 60 mL/kg/hr for 10 minutes), 3798.87 nmol/mL; in data set [2] (30 min after administration, 0.32 mol/L, caudal vein 60 mL/kg/hr for 10 minutes), 2019.47 nmol/mL; in data set [2] (60 min after administration, 0.32 mol/L, caudal vein 60 mL/kg/hr for 10 minutes) it was 833.93 nmol/mL; in data set [2] (120 min after administration, 0.32 mol/L, caudal vein 60 mL/kg/hr for 10 minutes), 244.03 nmol/mL; in data set [2] (−10 min (before administration), 0.32 mol/L, caudal vein 60 mL/kg/hr for 10 minutes), 74.73 nmol/mL.

For the compound `CC(=O)N[C@@H](Cc1c[nH]cn1)C(=O)O` [N-acetyl-L-histidine], in data set [1] (male, Wistar, rat, in vivo, 15 min, pH 7), the “L-histidine concentration in blood (mean value)” value is listed as 0.25 mM. In addition, in the data set with Wistar male rats (rat, in vivo, pH 7), the Side effects result is listed as “None”.

As to `NCCC(=O)N[C@@H](Cc1cnc[nH]1)C(=O)O` [β-alanyl-L-histidine], in data set [1] (setting [5]), the “L-histidine concentration in blood (mean value)” value is 0.30 mM. The Side effects result with Wistar male rats (rat, in vivo) is recorded as “Cessation of breathing”.
